Assay results: US8614237B2, “Benzofuran-4,5-diones as selective peptide deformylase inhibitors” (Sloan-Kettering Institute for Cancer Research, priority 2009, dated 2013)

Legend:
[1] = biological target: T1, HsPDF (Homo sapiens, UniProt Q9HBH1); assay: HsPDF %I 100uM
T1 construct: A 63 amino acid N-terminally truncated human peptide deformylase (HsPDF); 6His (C); made in house; host or cells: E. coli BL21 (DE3), co-transformed with the GroES/EL chaperone plasmid
Procedure: (§1) Table printed on a drawing sheet, Figure 5
Head of the field: HsPDF %I 100uM
(§2) Footnotes: -26 124 % inhibition
(§3) The patent's description of the figure: FIG. 5.
Where the first naming reader finds the target: head: HsPDF %I 100uM

[2] = tested on: EcPDF
Procedure: Head of the field: EcPDF %I 100uM
(§4) Specificity profiling of the derivatives of benzofuran-4,5-diones.
Where the first naming reader finds the target: head: EcPDF %I 100uM

[3] = tested on: EcPDF; remark: listed apart in the source
Procedure: Head of the field: EcPDF %I 10uM
as §4
Where the first naming reader finds the target: head: EcPDF %I 10uM

[4] = tested on: MMP-1; assay: MMP-1 %I 100uM
Procedure: as §1
Head of the field: MMP-1 %I 100uM
as §2, §3
Where the first naming reader finds the target: head: MMP-1 %I 100uM

[5] = biological target: T1, HsPDF; assay: HsPDF %I 10uM
Procedure: as §1
Head of the field: HsPDF %I 10uM
as §2, §3
Where the first naming reader finds the target: head: HsPDF %I 10uM

[6] = biological target: T2, HsPDF (Homo sapiens, UniProt Q9HBH1); assay: FLUO functional assay (fluorescamine, substrate fMAHA); assay type: biochemical; settings: 0.5 μM HsPDF, upper limit 10 μM compound
T2 construct: A 63 amino acid N-terminally truncated human peptide deformylase (HsPDF); 6His (C); made in house; host or cells: E. coli BL21 (DE3), co-transformed with the GroES/EL chaperone plasmid
T2 sequence (Q9HBH1 64-243 limits assumed): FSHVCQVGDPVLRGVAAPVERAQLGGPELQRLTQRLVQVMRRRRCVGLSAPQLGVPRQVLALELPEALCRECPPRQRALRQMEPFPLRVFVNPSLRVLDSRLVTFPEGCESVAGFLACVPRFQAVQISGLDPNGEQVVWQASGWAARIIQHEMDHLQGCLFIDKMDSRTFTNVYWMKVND
Procedure: High controls consisted of 1% DMSO (v/v). […] The deformylation reaction mixture was incubated for one hour at room temperature. A separate set of plates containing 3 μL of fluorescamine at 1 mg/mL in 100% DMSO was prepared for the labeling step. Then, 17 μL of the reaction mixture from the original set of plates was transferred to the plates containing the fluorescamine solution for the labeling step. The readout was performed on a Perkin Elmer VICTOR^3 V™ Multi label counter, using an excitation wavelength of 355 nm, and an emission wavelength of 460 nm. […] Compounds inducing a variation of fluorescence greater than 20% were flagged as optically active compounds.
High controls consisted of 1% DMSO (v/v). […] The deformylation reaction mixture was incubated for one hour at room temperature. A separate set of plates containing 3 μL of fluorescamine at 1 mg/mL in 100% DMSO was prepared for the labeling step. Then, 17 μL of the reaction mixture from the original set of plates was transferred to the plates containing the fluorescamine solution for the labeling step. The readout was performed on a Perkin Elmer VICTOR3 V™ Multi label counter, using an excitation wavelength of 355 nm, and an emission wavelength of 460 nm.

[7] = tested on: APN; assay: APN %I 100uM
Procedure: as §1
Head of the field: APN %I 100uM
as §2, §3
Where the first naming reader finds the target: head: APN %I 100uM

SMILES | HsPDF %I 100uM [1] | EcPDF %I 100uM [2] | EcPDF %I 10uM [3] | MMP-1 %I 100uM [4] | HsPDF %I 10uM [5] | IC50 [6] | APN %I 100uM [7]
COc1ccc(C(=O)c2coc3ccc(O)cc23)cc1OC [SKC-BF-Int13, (3,4-Dimethoxy-phenyl)-(5-hydroxy-benzofuran-3-yl)-methanone] | 8 %I | 7 %I | -26 %I | 3 %I | -6 %I | – | –
O=C(c1ccccc1)c1coc2ccc(O)cc12 [SKC-BF-Int3, (5-Hydroxy-benzofuran-3-yl)-phenyl-methanone] | – | 7 %I | 7 %I | – | – | – | –
O=C1C(=O)c2c(C(=O)c3ccsc3)coc2C(Cl)=C1Cl [SKI 417512, 6,7-dichloro-3-(thiophene-3-carbonyl)benzofuran-4,5-dione] | – | – | – | – | – | 1.8 µM | –
COc1ccc(C(=O)c2coc3c(Cl)c(Cl)c(O)cc23)cc1 [SKC-BF-Int10F, (6,7-Dichloro-5-hydroxy-benzofuran-3-yl)-(4-methoxyphenyl)-methanone] | – | – | – | – | 4 %I | – | -4 %I
O=C1C(=O)c2c(C(=O)c3ccc(-n4ccnc4)cc3)coc2C(Br)=C1Br [SKI 417499, 3-(4-(1H-imidazol-1-yl)benzoyl)-6,7-dibromobenzofuran-4,5-dione] | – | – | – | – | – | 1.8 µM | –
COc1ccc(C(=O)c2coc3ccc(O)cc23)cc1 [SKC-BF-Int9, (5-Hydroxy-benzofuran-3-yl)-(4-methoxyphenyl)-methanone] | – | – | 5 %I | – | – | – | 4 %I
COc1ccc(C(=O)c2coc3c(Br)cc(O)c(Br)c23)cc1 [SKC-BF-Int7D, (4,7-Dibromo-5-hydroxy-benzofuran-3-yl)-(4-methoxy-phenyl)-methanone] | -9 %I | -8 %I | – | – | 0 %I | – | –
COc1ccc(C(=O)c2coc3c2C(=O)C(=O)C=C3Cl)cc1 [SKC-BF-03, 7-Chloro-3-(4-methoxybenzoyl)-benzofuran-4,5-dione] | – | – | -6 %I | – | – | – | –
COc1ccc(C(=O)c2coc3c2C(=O)C(=O)c2ccccc2-3)cc1OC [SKC-NF-02, 3-(3,4-Dimethoxy-benzoyl)-naphtho[1,2-b]furan-4,5-dione] | 36 %I | 30 %I | 17 %I | 21 %I | 18 %I | – | 20 %I
COc1ccc(C(=O)c2coc3c(Br)cc(O)cc23)cc1 [SKC-BF-Int7B, (7-Bromo-5-hydroxy-benzofuran-3-yl)-(4-methoxyphenyl)-methanone] | – | 9 %I | 18 %I | -19 %I | – | – | -5 %I
COc1cc(C(=O)c2coc3c2C(=O)C(=O)c2ccccc2-3)cc(OC)c1OC [SKC-NF-03, 3-(3,4,5-Trimethoxy-benzoyl)-naphtho[1,2-b]furan-4,5-dione] | – | 21 %I | 18 %I | 21 %I | 25 %I | – | –
COc1ccc(C(=O)c2coc3c2C(=O)C(=O)C(Cl)=C3Cl)cc1 [SKC-BF-05, 6,7-Dichloro-3-(4-methoxy-benzoyl)-benzofuran-4,5-dione] | – | 1 %I | 0 %I | -19 %I | – | – | –
COc1ccc(C(=O)c2coc3c(Cl)cc(O)c(Cl)c23)cc1 [SKC-BF-Int10E, (4,7-Dichloro-5-hydroxy-benzofuran-3-yl)-(4-methoxy-phenyl)-methanone] | 9 %I | -4 %I | – | -4 %I | – | – | -4 %I
COc1ccc(C(=O)c2coc3cc(Cl)c(O)c(Cl)c23)cc1 [SKC-BF-Int10D, (4,6-Dichloro-5-hydroxy-benzofuran-3-yl)-(4-methoxyphenyl)-methanone] | 26 %I | 3 %I | 4 %I | – | 21 %I | – | –
COc1ccc(C(=O)c2coc3c2C(=O)C(=O)C(Br)=C3)cc1 [SKC-BF-06, 6-Bromo-3-(4-methoxybenzoyl)-benzofuran-4,5-dione] | – | – | – | – | 29 %I | – | –
COc1ccc(C(=O)c2coc3c(Br)c(Br)c(O)cc23)cc1OC [SKC-BF-Int14, (6,7-Dibromo-5-hydroxy-benzofuran-3-yl)-(3,4-dimethoxy-phenyl)-methanone] | – | -20 %I | 3 %I | -20 %I | 3 %I | – | -6 %I
COc1cc(C(=O)c2coc3c2C(=O)C(=O)C(Cl)=C3Cl)cc(OC)c1OC [SKC-BF-11, 6,7-Dichloro-3-(3,4,5-trimethoxy-benzoyl)-benzofuran-4,5-dione] | – | 27 %I | – | 32 %I | – | – | –
COc1cc(C(=O)c2coc3c(Br)c(Br)c(O)cc23)cc(OC)c1OC [SKC-BF-Int21, (6,7-Dibromo-5-hydroxy-benzofuran-3-yl)-(3,4,5-trimethoxy-phenyl)methanone] | 5 %I | 7 %I | 4 %I | – | – | – | –
COc1ccc(C(=O)c2coc3c(Cl)c(Cl)c(O)cc23)cc1OC [SKC-BF-Int16, (6,7-Dichloro-5-hydroxy-benzofuran-3-yl)-(3,4-dimethoxy-phenyl)-methanone] | -21 %I | -6 %I | 4 %I | – | -24 %I | – | –
COc1cc(C(=O)c2coc3ccc(O)cc23)cc(OC)c1OC [SKC-BF-Int19] | 31 %I | 7 %I | – | 19 %I | 4 %I | – | –
O=C1C(=O)c2c(C(=O)c3ccc(C(=O)O)cc3)coc2C(Br)=C1Br [SKI 417518, 4-(6,7-dibromo-4,5-dioxo-4,5-dihydrobenzofuran-3-carbonyl)benzoic acid] | – | – | – | – | – | 2.3 µM | –
COc1ccc(C(=O)c2coc3ccc(O)c(Br)c23)cc1 [SKC-BF-Int7C, (4-Bromo-5-hydroxy-benzofuran-3-yl)-(4-methoxyphenyl)-methanone] | -20 %I | -4 %I | -4 %I | – | 3 %I | – | -14 %I
O=C(c1ccccc1)c1coc2c(Cl)c(Cl)c(O)cc12 [SKC-BF-Int4, (6,7-Dichloro-5-hydroxy-benzofuran-3-yl)-phenyl-methanone] | 24 %I | 1 %I | 6 %I | -20 %I | 8 %I | – | 6 %I
O=C1C(=O)c2c(C(=O)c3ccccc3)coc2C(Br)=C1Br [SKI 417508, 3-benzoyl-6,7-dibromobenzofuran-4,5-dione] | – | – | – | – | – | 3.4 µM | –
O=C1C(=O)c2c(C(=O)c3ccc4c(c3)OCCO4)coc2C(Br)=C1Br [SKI 417504, 6,7-dibromo-3-(2,3-dihydrobenzo[b][1,4]dioxine-6-carbonyl)benzofuran-4,5-dione] | – | – | – | – | – | 2.3 µM | –
COc1cc(C(=O)c2coc3c(Cl)c(Cl)c(O)cc23)cc(OC)c1OC [SKC-BF-Int22, (6,7-Dichloro-5-hydroxy-benzofuran-3-yl)-(3,4,5-trimethoxy-phenyl)methanone] | 18 %I | 2 %I | 4 %I | -14 %I | – | – | 2 %I
COc1ccc(C(=O)c2coc3cc(Br)c(O)cc23)cc1 [SKC-BF-Int7A, (6-Bromo-5-hydroxy-benzofuran-3-yl)-(4-methoxyphenyl)-methanone] | -5 %I | -14 %I | -8 %I | – | -17 %I | – | -17 %I
